The values that follow come from patent US6475491B1, “Treatment of HIV and other viral infections using combinatorial therapy” (priority 1995, dated 2002).

One may read the viability as a read-out of living cells in per cent, often relative to untreated cells. Low values mean a greater loss of cells, high ones better survival.

In brackets after ≈: the same amount, converted by molar mass. Entries after “also recorded” stand apart in the source; their conditions may differ. Read-outs that look alike come from different tables or passages of the source.

Data set [1] has as its system HIV-1. As to conditions: cited from earlier work.
Data set [2] has as its system HIV-1. Particulars: cited from earlier work. The source holds these as a separate data set.
Data set [3] has as its system HIV-1IIIb.
Procedure: (§6) The results of these assays are analyzed using Chou and Talalay's combination method (Chou and Talalay, 1984, Adv. Enzyme Regul. 22:27-55) and ‘Dose-Effect Analysis with Microcomputers’ software (Chou and Chou, 1987, software and manual. p19-64. Elsevier Biosoft, Cambridge, UK) in order to obtain a Combination Index. Combination Index values <1 indicates synergy, values>1 indicate antagonism and values equal to 1 indicate additive effects.
(§7) For this assay, 3×10^4 uninfected Molt4 cells are cocultivated with 3×10^3 H9/ LA1 or CEM/LA1 chronically infected cells per well in 24 well plates. Inhibitors are added on day 0, and the assay plates are re-fed on days 1 and 3 with growth medium containing the inhibitors. The assay is harvested on day 5. Antiviral activity is measured by several parameters: Western blot analysis of pelleted cells from treated cultures, RT levels, and p24 antigen levels in the supernatant.
(§8) The combined drug effects are calculated by the multiple drug analysis method of Chou and Talalay (Chou and Talalay, 1984, Adv. Enzyme Regul. 22:27-55) and ‘Dose-Effect Analysis with Microcomputers’ software (Chou and Chou, 1987, software and manual. p19-64. Elsevier Biosoft, Cambridge, UK) using the equation: [formula]
(§9) where CI is the combination index, (Dx)1 is the dose of drug 1 required to produce x percent effect alone, (D)1 is the dose of drug 1 required to produce the same x percent effect in combination with (D)2. The values of (Dx)2 and (D)2 are similarly derived from drug 2. The value of α is determined from the plot of the dose effect curve using the median effect equation:
(§10) where fa is the fraction affected by dose D, fu is the uninfected fraction, Dm is the dose required for 50% effect and m is the slope of the dose-effect curve. […] If the agents are mutually exclusive α is 0. and if they are mutually nonexclusive, α is 1. […] CI values of <1 indicate synergy, values>1 indicate antagonism and values equal to 1 indicate additive effects.
Data set [4] relates to HIV-1IIIb. Description: Combination indices from in vitro HIV-1IIIb/CEM co-culture (Chou and Talalay).
Procedure: as §6, §7, §8, §9, §10
Data set [5] relates to HIV-1LA1. As to conditions: control peptides; cited from earlier work.
A short description of data set [6]: Toxicity in in vitro studies and in animals. From the text: The present invention provides the first reported use of such peptides in combination with another antiviral or any other therapeutic agent.
Data set [7] concerns HIV-1LA1. The data set is described as follows: Cell fusion assay: syncytia formation, uninfected Molt4 cells co-cultivated with chronically HIV-1 infected CEM cells. It is filed as cell-based. The procedure: A cell fusion assay may be utilized to test the peptides' ability to inhibit HIV-induced syncytia formation in vitro. Such an assay may comprise culturing uninfected CD-4^+ cells (such as Molt or CEM cells, for example) in the presence of chronically HIV-infected cells and a therapeutic agent to be assayed. For each combinational therapy, a range of concentrations may be tested. […] Standard conditions for culturing, well known to those of ordinary skill in the art, are used. After incubation for an appropriate period (24 hours at 37° C., for example) the culture is examined microscopically for the presence of multinucleated giant cells, which are indicative of cell fusion and syncytia formation.
Approximately 7×10^4 Molt cells were incubated with 1×10^4CEM cells chronically infected with the HIV-1LA1 virus in 96-well plates (one-half area cluster plates; Costar, Cambridge, Mass.) in a final volume of 100 μl culture medium as previously described (Matthews, T. J. et al., 1987, Proc. Natl. Acad. Sci. USA 84: 5424-5428). Peptide inhibitors were added in a volume of 10 μl and the cell mixtures were incubated for 24 hr. at 37° C. At that time, multinucleated giant cells were estimated by microscopic examination at a 40×magnification which allowed visualization of the entire well in a single field.
The initial screen for antiviral activity assayed peptides' ability to block syncytium formation induced by overnight co-cultivation of uninfected Molt4 cells with chronically HIV-1 infected CEM cells. […] For these experiments, CEM cells chronically infected with either HIV-1LA1, HIV-1MN, HIV-1RF, or HIV-1SF2 virus were cocultivated overnight with uninfected Molt 4 cells.

Another data set deals with HIV-1MN. Description: Cell fusion assay: syncytia formation, Molt4 cells with chronically infected CEM cells. Type of data set: cell-based. As to conditions: HIV-1MN infected CEM cells. From the text:
(§1) The results of several such experiments are presented herein.

In the next data set the test system is HIV-1RF. The description is as above. It is filed as cell-based. Particulars: HIV-1RF infected CEM cells.
Text: as §1

In another data set the test system is HIV-1SF2. Described as above. Particulars: HIV-1SF2 infected CEM cells. Type of data set: cell-based.
Text: as §1

For a further data set, the system named is HIV-2. Description: Cell fusion assay: HIV-2 mediated syncytia formation. Type of data set: cell-based. Particulars: comparison HIV-1 / HIV-2, same cell type.
Data set [8] concerns HIV-1LA1. The procedure: (§2) The resulting reverse transcriptase (RT) activity in counts per minute was determined using the assay described, below, in Section 6.1.5. See, Reed, L. J. et al., 1938, Am. J. Hyg. 27: 493-497 for an explanation of TCID50 calculations.
(§3) The micro-reverse transcriptase (RT) assay was adapted from Goff et al. (Goff, S. et al., 1981, J. Virol. 38:239-248) and Willey et al. (Willey, R. et al., 1988, J. Virol. 62:139-147). Supernatants from virus/cell cultures are adjusted to 1% Triton-X100. A 10 μl sample of supernatant was added to 50 μl of RT cocktail in a 96-well U-bottom microtitre plate and the samples incubated at 37° C. for 90 min. The RT cocktail contained 75 mM KCl, 2 mM dithiothreitol, 5 mM MgCl2, 5 μg/ml poly A (Pharmacia, cat. No. 27-4110-01), 0.25 units/ml oligo dT (Pharmacia, cat. No. 27-7858-01), 0.05% NP40, 50 mM Tris-HCl, pH 7.8, 0.5 μM non-radioactive dTTP, and 10 μCi/ml ^32P-dTTP (Amersham, cat. No. PB.10167).
After the incubation period, 40 μl of reaction mixture was applied to a Schleicher and Schuell (S+S) NA45 membrane (or DE81 paper) saturated in 2×SSC buffer (0.3 M NaCl and […] sodium citrate) held in a S+S Minifold over one sheet of GB003 (S+S) filter paper, with partial vacuum applied. Each well of the minifold was washed four times with 200 μl 2×SSC, under full vacuum. The membrane was removed from the minifold and washed 2 more times in a pyrex dish with an excess of 2×SSC. Finally, the membrane was drained on absorbent paper, placed on Whatman #3 paper, covered with Saran wrap, and exposed to film overnight at −70° C.
After 7 days of culture, cell-free supernatant was tested for the presence of RT activity as a measure of successful infection.

A further data set concerns HIV-2NIHZ. Description: Cell free virus infection assay, CEM cells, reverse transcriptase readout. Type of data set: cell-based. Particulars: 25 TCID50 HIV-2NIHZ, 7 days. The procedure:
as §2, §3
After the incubation period, 40 μl of reaction mixture was applied to a Schleicher and Schuell (S+S) NA45 membrane (or DE81 paper) saturated in 2×SSC buffer (0.3 M NaCl and […] sodium citrate) held in a S+S Minifold over one sheet of GB003 (S+S) filter paper, with partial vacuum applied. Each well of the minifold was washed four times with 200 μl 2×SSC, under full vacuum. […]

The test system of a further data set is HIV-1/IIIb. Type of data set: cell-based. Particulars: 5 h. From the text: Anti-HIV assays: The antiviral assays performed were as those described, above, in Section 6.1. Assays utilized HIV-1/IIIb and/or HIV-2 NIHZ isolates. Purified peptides were used, unless otherwise noted in FIGS. 5A-5L.
Data set [9] in a line: Cell proliferation and toxicity assay. It is filed as cell-based. Particulars: human, CEM cells. The procedure: (§4) Cell proliferation and toxicity assay: Approximately 3.8×10^5 CEM cells for each peptide concentration were incubated for 3 days at 37° C. in T25 flasks. […] The concentrations of each peptide used were 0, 2.5, 10, and 40 μg/ml. Cell counts were taken at incubation times of 0, 24, 48, and 72 hours.
(§5) Additionally, cells were incubated in the absence of either peptide.

The subject of a further data set is CEM cells. Description: Cell proliferation and toxicity assay. Type of data set: cell-based. The procedure:
as §4, §5

As to `CC(C)c1nc(CN(C)C(=O)N[C@H](C(=O)N[C@@H](Cc2ccccc2)C[C@H](O)[C@H](Cc2ccccc2)NC(=O)OCc2cncs2)C(C)C)cs1` [ABT-538], the “antiviral activity in vitro” value in the data set on HIV-1 [1] was “potent antiviral activity”. For the same molecule, in the data set with HIV-1 [2] (AIDS patients), the CD4 lymphocyte counts entry is listed as “rise substantially” and the “plasma HIV-1 levels” value was “decrease exponentially”. Further, the “pharmacokinetic and safety profiles in vivo” value in the data set on HIV-1 [2] (human, in vivo) is “favorable pharmokinetic and safety profiles”.
In the data set with HIV-1IIIb [3], `Cc1cn([C@H]2C[C@H](N=[N+]=[N-])[C@@H](CO)O2)c(=O)[nH]c1=O` [AZT, 3′-azido-2′,3′-dideoxythymidine] yielded an EC50 of 13.1 mg/L (≈ 49.2 µM).
In the data set on HIV-1IIIb [3], `CC(C)(C)NC(=O)[C@@H]1CN(Cc2cccnc2)CCN1C[C@@H](O)C[C@@H](Cc1ccccc1)C(=O)N[C@H]1c2ccccc2C[C@H]1O` [Indinavir] showed an EC50 of 0.0276 mg/L (≈ 0.045 µM).
As for `Cc1c(O)cccc1C(=O)N[C@@H](CSc1ccccc1)[C@H](O)CN1C[C@H]2CCCC[C@H]2C[C@H]1C(=O)NC(C)(C)C` [Nelfinavir, reference compound], the EC50 with HIV-1IIIb [3] came out at 0.00927 mg/L (≈ 0.0163 µM); in the data set with HIV-1IIIb [4] (Human immunodeficiency virus 1, read-out: Dm Drug #2 (dose required for 50% effect)), 0.0609 mg/L.
Regarding `Nc1ccn([C@@H]2CS[C@H](CO)O2)c(=O)n1` [Peptide 3TC, reference compound], the EC50 in the data set with HIV-1IIIb [3] was 0.0748 mg/L (≈ 0.326 µM). In the data set on HIV-1IIIb [4] (experiments T20:3TC 2:1, T20:Nelfinavir 5:1), the “Dm Drug #2 (dose required for 50% effect)” value is 63.73 ng/mL.
Consider “Ac-LQARILAVERYLKDQQQ-NH2 (N-terminus and C-terminus assumed) [DP-116]”, for which the “activity previously shown in the cell-free virus infection assay” value in the data set with HIV-1LA1 [5] is “inactive; also recorded: ineffective as a HIV inhibitor; also recorded: negative for inhibition of HIV-1 infection”.
As to “Ac-NNLLRAIEAQQHLLQLTVWGIKQLQARILAVERYLKDQ-NH2 [DP-107]”, the “toxicity in in vitro studies and in animals” value in data set [6] is reported as “non-toxic”.
In the case of “DP-180: control peptide incorporating the amino acid residues of DP-178 in a scrambled sequence (SSESFTLLEQWNNWKLQLAEQWLEQINEKHYLEDIS; Human immunodeficiency virus) [reference compound]”, the “concentration with no evidence of anti-fusogenic activity” value in the data set with HIV-1LA1 [7] (high concentration tested) was greater than 40 µg/mL.
Turning to Enfuvirtide, the “selectivity as inhibitor of HIV-1-mediated over HIV-2 mediated cell fusion” value in the data set on HIV-1LA1 [7] is recorded as 4 log. For the same molecule, in the data set on HIV-1LA1 [7] (HIVLA1 infected CEM cells, overnight co-cultivation), the “concentration affording complete protection against syncytium formation (lowest concentration tested)” value is no more than 12.5 ng/mL. In addition, the “lowest effective inhibitory concentration completely blocking virus induced syncytia formation” value in the data set on HIV-1LA1 [7] (Molt4 + chronically infected CEM cells, 24 hr) lay within 1 to 10 ng/mL. Further, in the data set with HIV-1LA1 [7] (comparison HIV-1 / HIV-2), the “peptide concentration blocking HIV-1-mediated syncytia formation” value is “below 1 ng/ml”. Further, the “concentration affording complete protection against syncytium formation (lowest concentration used)” value in the data set on HIV-1MN, with HIV-1RF and in the data set on HIV-1SF2 was no more than 100 ng/mL in each case. The “concentration failing to block HIV-2 mediated syncytia formation” value in the data set with HIV-2 is greater than 10 µg/mL. Besides, the “IC50, inhibition of HIV-1 infection” value in the data set on HIV-1LA1 [8] (62 TCID50 HIV-1LA1, CEM cells, 7 days) was “about 3 ng/ml”. For the same molecule, the “IC50, inhibition of RT production from infected cells” value with HIV-1LA1 [8] (247 TCID50 HIV-1LA1, CEM cells, 7 days) was determined as 0.09 mg/L. The “potency as HIV-1 inhibitor relative to HIV-2 inhibitor” value in the data set with HIV-1LA1 [8] (HIV-1LA1 vs HIV-2NIHZ, cell-free infection) is on record as “two logs more potent”. Besides, in the data set on HIV-2NIHZ, the “IC50 for HIV-2NIHZ” value is “much higher IC50”. The “Dm T20 (dose required for 50% effect)” value with HIV-1IIIb [4] (experiment T20:3TC 1:1.5) was 158.87 ng/mL; in the data set on HIV-1IIIb [4] (experiment T20:3TC 2:1) it was 298.50 ng/mL; in the data set with HIV-1IIIb [4] (experiment T20:Indinavir 10:1) it was 298.50 ng/mL; in the data set on HIV-1IIIb [4] (experiment T20:Nelfinavir 1.33:1) it was 172.02 ng/mL; in the data set on HIV-1IIIb [4] (experiment T20:Nelfinavir 5:1) it was 298.50 ng/mL; with HIV-1IIIb [4] (experiment T:20:AZT 1:10), 298.50 ng/mL.
Consider H-YTSLIHSLIEESQNQQEK-OH [Peptide T-4], for which the “IC50, antiviral activity” value in the data set on HIV-1/IIIb is greater than 400 mg/L.
For enfuvirtide, the viability at 0 h, 2.5 µg/mL in data set [9] (2.5 μg/ml, 0 hours) was 98%. Further, the viability at 24 h, 2.5 µg/mL in data set [9] (2.5 μg/ml, 24 hours) amounted to 93%. The viability at 48 h, 2.5 µg/mL in data set [9] (2.5 μg/ml, 48 hours) was 96%. This molecule displayed a viability at 72 h, 2.5 µg/mL in [9] (2.5 μg/ml, 72 hours) of 96%. The viability at 0 h, 10 µg/mL in data set [9] (10 μg/ml, 0 hours) worked out at 98%. In addition, the viability at 24 h, 10 µg/mL in [9] (10 μg/ml, 24 hours) was 97%. The viability at 48 h, 10 µg/mL in [9] (10 μg/ml, 48 hours) is 98%. Further, the viability at 72 h, 10 µg/mL in [9] (10 μg/ml, 72 hours) came to 98%. The same molecule displayed a viability at 0 h, 40 µg/mL in data set [9] (40 μg/ml, 0 hours) of 98%. Also, the viability at 24 h, 40 µg/mL in [9] (40 μg/ml, 24 hours) stood at 97%. In [9] (40 μg/ml, 48 hours), this molecule yielded a viability at 48 h, 40 µg/mL of 95%. This molecule came in with a viability at 72 h, 40 µg/mL in data set [9] (40 μg/ml, 72 hours) of 97%. In addition, the “non-cytotoxic peptide concentration relative to HIV inhibitory dose” value in the data set with CEM cells is “greater than 3 log”. Besides, in the data set with CEM cells (CEM cells, 3 days), the “concentration non-cytotoxic to cells in culture (highest tested)” value was greater than 40 µg/mL. In the data set on CEM cells (CEM cells, up to 40 μg/ml, 3 days), the “cytotoxic effects on cells in culture” value is recorded as “no cytotoxic effects”. Further, in [6], the “toxicity in in vitro studies and in animals” value is recorded as “non-toxic”.
